# Target: human PDE10A2 (Homo sapiens (Human), UniProt Q9Y233)
# Test: PDE10 fluorescence polarization (IMAP FP) inhibition assay
# Format: biochemical
# Settings: apparent inhibition constant, FAM-labeled cAMP substrate 50 nM, room temperature
# How it was run: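 Cytoplasmic lysate of AD293 cells transiently expressing human PDE10A2, enzyme preincubated 60 min at room temperature with compounds (1% DMSO), then 50 nM FAM-cAMP added for 60 min. Buffer 10 mM Tris HCl pH 7.2, 10 mM MgCl2, 1 mM DTT; IMAP binding reagent stop, FP read after ≥1 h.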
# Sequence of human PDE10A2 (Q9Y233 267-1055): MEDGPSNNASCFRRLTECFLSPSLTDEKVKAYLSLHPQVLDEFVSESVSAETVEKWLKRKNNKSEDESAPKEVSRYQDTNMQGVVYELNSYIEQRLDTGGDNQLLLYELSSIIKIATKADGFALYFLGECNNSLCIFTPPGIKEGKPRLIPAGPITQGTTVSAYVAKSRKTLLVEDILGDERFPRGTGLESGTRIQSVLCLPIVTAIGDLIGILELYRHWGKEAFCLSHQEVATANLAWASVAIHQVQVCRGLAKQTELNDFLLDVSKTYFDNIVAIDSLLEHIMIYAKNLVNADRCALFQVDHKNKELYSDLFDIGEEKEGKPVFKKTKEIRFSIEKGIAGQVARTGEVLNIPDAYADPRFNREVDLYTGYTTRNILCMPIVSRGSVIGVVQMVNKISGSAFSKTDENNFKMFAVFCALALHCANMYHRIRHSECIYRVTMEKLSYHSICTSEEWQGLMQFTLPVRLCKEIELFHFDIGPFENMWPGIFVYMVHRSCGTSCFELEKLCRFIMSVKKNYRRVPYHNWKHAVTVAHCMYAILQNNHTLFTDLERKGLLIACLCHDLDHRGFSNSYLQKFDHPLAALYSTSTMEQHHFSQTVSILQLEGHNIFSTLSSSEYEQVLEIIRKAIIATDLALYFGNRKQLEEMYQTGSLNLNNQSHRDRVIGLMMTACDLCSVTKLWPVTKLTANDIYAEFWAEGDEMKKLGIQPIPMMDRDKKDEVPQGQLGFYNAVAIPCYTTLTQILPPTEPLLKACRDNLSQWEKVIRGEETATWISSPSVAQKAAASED
row,Structure (SMILES),Ki [nM]
1,"COCc1nc(C)nn1-c1cc(N2CC(c3nc4ccccc4n3C)C2)nc(C(F)(F)F)n1 [Example 66, 2-(1-(6-(5-(methoxymethyl)-3-methyl-1H-1,2,4-triazol-1-yl)-2-(trifluoromethyl)pyrimidin-4-yl)azetidin-3-yl)-1-methyl-1H-benzo[d]imidazole]",0.94
2,"Cc1nc(C)n(-c2cc(N3CC(c4nc5ccccc5n4C)C3)nc(C(F)(F)F)n2)n1 [Example 60, 2-{1-[6-(3,5-dimethyl-1H-1,2,4-triazol-1-yl)-2-(trifluoromethyl)pyrimidin-4-yl]azetidin-3-yl}-1-methyl-1H-benzimidazole]",1.1
3,"Cc1nc(N2CC(c3nc4ccccc4n3CC#N)C2)cc(-n2nc(C)nc2C)n1 [Example 115, 2-(2-(1-(6-(3,5-dimethyl-1H-1,2,4-triazol-1-yl)-2-methylpyrimidin-4-yl)azetidin-3-yl)-1H-benzo[d]imidazol-1-yl)acetonitrile]",14
4,"Cc1nc(-c2ccccn2)cc(N2CC(c3nc4ccccc4n3C)C2)n1 [Example 95, 1-methyl-2-(1-(2-methyl-6-(pyridin-2-yl)pyrimidin-4-yl)azetidin-3-yl)-1H-benzo[d]imidazole]",1.8
5,"Cc1nc(C)n(-c2cc(N3CC(c4nc5ccccc5n4C)C3)nc(-n3cccn3)n2)n1 [Example 76, 2-(1-(6-(3,5-dimethyl-1H-1,2,4-triazol-1-yl)-2-(1H-pyrazol-1-yl)pyrimidin-4-yl)azetidin-3-yl)-1-methyl-1H-benzo[d]imidazole]",0.61
6,"CCc1nc(C)nn1-c1cc(N2CC(c3nc4ccccc4n3C)C2)nc(C(F)(F)F)n1 [Example 67, 2-(1-(6-(5-ethyl-3-methyl-1H-1,2,4-triazol-1-yl)-2-(trifluoromethyl)pyrimidin-4-yl)azetidin-3-yl)-1-methyl-1H-benzo[d]imidazole]",0.28
7,"COc1nc(N2CC(c3nc4ccccc4n3C)C2)cc(-n2nc(C)nc2C2CC2)n1 [Example 63, 2-(1-(6-(5-cyclopropyl-3-methyl-1H-1,2,4-triazol-1-yl)-2-methoxypyrimidin-4-yl)azetidin-3-yl)-1-methyl-1H-benzo[d]imidazole]",1.8
8,"Cc1nc(N2CC(c3nc4ccccc4n3CCF)C2)cc(-n2nc(C)nc2C)n1 [Example 116, 2-(1-(6-(3,5-dimethyl-1H-1,2,4-triazol-1-yl)-2-methylpyrimidin-4-yl)azetidin-3-yl)-1-(2-fluoroethyl)-1H-benzo[d]imidazole]",6.2
9,"Cc1nc(N2CC(c3nc4ccccc4n3C)C2)cc(-n2nc(C)nc2COc2ccccc2)n1 [Example 46, 1-methyl-2-(1-(2-methyl-6-(3-methyl-5-(phenoxymethyl)-1H-1,2,4-triazol-1-yl)pyrimidin-4-yl)azetidin-3-yl)-1H-benzo[d]imidazole]",1.2
10,"Cc1nc(-c2ccccc2)cc(N2CC(c3nc4ccccc4n3C)C2)n1 [Example 88, 1-methyl-2-(1-(2-methyl-6-phenylpyrimidin-4-yl)azetidin-3-yl)-1H-benzo[d]imidazole]",63
11,"Cc1nc(N2CC(c3nc4ccccc4n3C)C2)cc(-n2nc(C)nc2CN2CCCC2=O)n1 [Example 48, 1-((3-methyl-1-(2-methyl-6-(3-(1-methyl-1H-benzo[d]imidazol-2-yl)azetidin-1-yl)pyrimidin-4-yl)-1H-1,2,4-triazol-5-yl)methyl)pyrrolidin-2-one]",0.26
12,"Cc1nc(C)n(-c2cc(N3CC(c4nc5ccccc5n4C)C3)nc(OCc3nccs3)n2)n1 [Example 72, 2-(((4-(3,5-dimethyl-1H-1,2,4-triazol-1-yl)-6-(3-(1-methyl-1H-benzo[d]imidazol-2-yl)azetidin-1-yl)pyrimidin-2-yl)oxy)methyl)thiazole]",0.28

# The next lines start with the values.
row,Ki [nM],Structure (SMILES)
1,3.3,"CCc1nc(CC)n(-c2cc(N3CC(c4nc5ccccc5n4C)C3)nc(C)n2)n1 [Example 22, 2-(1-(6-(3,5-diethyl-1H-1,2,4-triazol-1-yl)-2-methylpyrimidin-4-yl)azetidin-3-yl)-1-methyl-1H-benzo[d]imidazole]"
2,1.7,"Cc1cnn(-c2cc(N3CC(c4nc5ccccc5n4C)C3)nc(C)n2)n1 [Example 28, 1-methyl-2-(1-(2-methyl-6-(4-methyl-2H-1,2,3-triazol-2-yl)pyrimidin-4-yl)azetidin-3-yl)-1H-benzo[d]imidazole]"
3,7,"Cc1nc(N2CC(c3nc4ccccc4n3C)C2)cc(-n2nc(C(F)(F)F)nc2C)n1 [Example 21, 1-methyl-2-(1-(2-methyl-6-(5-methyl-3-(trifluoromethyl)-1H-1,2,4-triazol-1-yl)pyrimidin-4-yl)azetidin-3-yl)-1H-benzo[d]imidazole]"
4,0.41,"CCCc1nc(C)nn1-c1cc(N2CC(c3nc4ccccc4n3C)C2)nc(C)n1 [Example 38, 1-methyl-2-(1-(2-methyl-6-(3-methyl-5-propyl-1H-1,2,4-triazol-1-yl)pyrimidin-4-yl)azetidin-3-yl)-1H-benzo[d]imidazole]"
5,3.1,"Cc1nc(N2CC(c3nc4ccccc4n3C)C2)cc(-n2nc(C)nc2C(C)C)n1 [Example 39, 2-(1-(6-(5-isopropyl-3-methyl-1H-1,2,4-triazol-1-yl)-2-methylpyrimidin-4-yl)azetidin-3-yl)-1-methyl-1H-benzo[d]imidazole]"
6,11,"Cc1nc(-c2cccnn2)cc(N2CC(c3nc4ccccc4n3C)C2)n1 [Example 106, 1-methyl-2-{1-[2-methyl-6-(pyridazin-3-yl)pyrimidin-4-yl]azetidin-3-yl}-1H-benzimidazole]"

# Reference: patent US9365562B2, “1,3 substituted azetidine PDE10 inhibitors” (Merck Sharp & Dohme Corp., priority 2011, dated 2016)
